Test results from patent US11098056B2, “UDP glycosyltransferase inhibitors and methods of use” (GENZYME CORPORATION, priority 2018, dated 2021).

Target: T1, UGT8 (Homo sapiens, UniProt Q16880)
T1 construct: host or cells: OE19 cells
T1 sequence (Q16880 21-541): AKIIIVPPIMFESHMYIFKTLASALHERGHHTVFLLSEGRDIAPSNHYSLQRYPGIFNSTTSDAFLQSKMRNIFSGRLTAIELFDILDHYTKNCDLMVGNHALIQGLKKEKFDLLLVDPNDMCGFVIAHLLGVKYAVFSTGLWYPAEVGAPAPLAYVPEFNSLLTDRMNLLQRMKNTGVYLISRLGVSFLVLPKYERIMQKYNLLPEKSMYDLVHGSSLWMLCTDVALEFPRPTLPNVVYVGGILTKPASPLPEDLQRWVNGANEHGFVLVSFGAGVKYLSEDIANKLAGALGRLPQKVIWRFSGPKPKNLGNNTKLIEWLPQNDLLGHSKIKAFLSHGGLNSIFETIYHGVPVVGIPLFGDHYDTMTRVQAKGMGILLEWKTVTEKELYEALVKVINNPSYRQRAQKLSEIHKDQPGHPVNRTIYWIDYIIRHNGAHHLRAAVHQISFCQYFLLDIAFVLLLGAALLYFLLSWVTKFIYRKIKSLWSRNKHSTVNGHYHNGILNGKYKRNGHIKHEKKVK
Experiment: In vitro sulfatide (SFT) synthesis inhibition in OE19 cells, LC-MS/MS readout
Format: cell-based
Details: 72 hr, sulfatide by LC-MS/MS, read-out: Potency range (IC50, In-vitro SFT)
Summary of the method: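 OE19 cells, 2,500/well, exposed to compound dose-downs in triplicate for 72 hr at 37° C (screening at 10 μM final). Sulfatide quantified by LC-MS/MS (C8 UPLC, isocratic, negative-ion MRM) with C17 SFT internal standard; IC50 from concentration-response curves.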

IC50 [nM]	SMILES
< 100	CNC(=O)c1csc2c(C(F)(F)F)cc(N3CCC(OC(=O)N[C@H](C)CF)CC3)nc12 [Example 692, [1-[3-(Methylcarbamoyl)-7-(trifluoromethyl)thieno[3,2-b]pyridin-5-yl]-4-piperidyl] N-[(1R)-2-fluoro-1-methyl-ethyl]carbamate]
> 1000	CNC(=O)c1csc2c(C(F)(F)F)cc(OC3CC4COCC(C3)N4C(=O)OC(C)(C)C)nc12 (stereo not drawn) [Example 750]
< 100	CNC(=O)c1csc2c(C(F)(F)F)cc(N3CCN(C(=O)OCC4CC4)CC3)nc12 [Example 780, Cyclopropylmethyl 4-(3-(methylcarbamoyl)-7-(trifluoromethyl)thieno[3,2-b]pyridin-5-yl)piperazine-1-carboxylate]
100 to 1000	CNC(=O)c1csc2c(C(F)(F)F)cc(N3CCC(OC(=O)N4C[C@H](N(C)C)[C@@H]4C)CC3)nc12 [Example 793, 1-(3-(Methylcarbamoyl)-7-(trifluoromethyl)thieno[3,2-b]pyridin-5-yl)piperidin-4-yl (2S,3S)-3-(dimethylamino)-2-methylazetidine-1-carboxylate]
< 100	CNC(=O)c1csc2c(C(F)(F)F)cc(N3CCC(OC(=O)N4C[C@@H](N(C)C)[C@@H]4C)CC3)nc12 [Example 794, 1-(3-(Methylcarbamoyl)-7-(trifluoromethyl)thieno[3,2-b]pyridin-5-yl)piperidin-4-yl (2S,3R)-3-(dimethylamino)-2-methylazetidine-1-carboxylate]
< 100	CNC(=O)c1csc2c(C(F)(F)F)cc(N3CCC(OC(=O)N4CC5(CCN5C)C4)CC3)nc12 [Example 806, 1-(3-(Methylcarbamoyl)-7-(trifluoromethyl)thieno[3,2-b]pyridin-5-yl)piperidin-4-yl 1-methyl-1,6-diazaspiro[3.3]heptane-6-carboxylate]
> 1000	CNC(=O)c1csc2c(C(F)(F)F)cc(N3CCC(NC(=O)O[C@H]4CCN(C)[C@H]4C)CC3)nc12 [Example 809, (2S,3S)-1,2-Dimethylpyrrolidin-3-yl (1-(3-(methylcarbamoyl)-7-(trifluoromethyl)thieno[3,2-b]pyridin-5-yl)piperidin-4-yl)carbamate]
< 100	CNC(=O)c1csc2c(C(F)(F)F)cc(N3CCC(NC(=O)OC(C)C)CC3)nc12 [Example 816, Isopropyl (1-(3-(methylcarbamoyl)-7-(trifluoromethyl)thieno[3,2-b]pyridin-5-yl)piperidin-4-yl)carbamate]
100 to 1000	CNC(=O)c1csc2c(C(F)(F)F)cc(O[C@H]3C[C@@H](OC(=O)NC4COC4)C3)nc12 [Example 822, (+/−)-cis-(1S,3S)-3-((3-(Methylcarbamoyl)-7-(trifluoromethyl)thieno[3,2-b]pyridin-5-yl)oxy)cyclobutyl oxetan-3-ylcarbamate]
100 to 1000	CNC(=O)c1csc2c(C(F)(F)F)cc(OC3CCN(C(=O)OC4CN(C)CC4F)CC3)nc12 (stereo not drawn) [Example 835, 4-Fluoro-1-methylpyrrolidin-3-yl 4-((3-(methylcarbamoyl)-7-(trifluoromethyl)thieno[3,2-b]pyridin-5-yl)oxy)piperidine-1-carboxylate]
< 100	CNC(=O)c1csc2c(C(F)(F)F)cc(O[C@H]3CCN(C(=O)OC[C@@H](C)OC(F)(F)F)C3)nc12 [Example 858, (R)-2-(Trifluoromethoxy)propyl (S)-3-((3-(methylcarbamoyl)-7-(trifluoromethyl)thieno[3,2-b]pyridin-5-yl)oxy)pyrrolidine-1-carboxylate]

SMILES	IC50 [nM]
CNC(=O)c1csc2c(C(F)(F)F)cc(OC3CC4(C3)CN(C(=O)O[C@@H](C)COC(F)(F)F)C4)nc12 [Example 853, (S)-1-(Trifluoromethoxy)propan-2-yl 6-((3-(methylcarbamoyl)-7-(trifluoromethyl)thieno[3,2-b]pyridin-5-yl)oxy)-2-azaspiro[3.3]heptane-2-carboxylate]	< 100
